Results from US20080213396A1, “Copper Lowering Treatment Of Cardiac Disease” (The Regents of the University of Michigan, priority 2007, published 2008).

Columns and labels:
Wilson's disease = details: cited from earlier work
[1] = stability assays developed by the inventors (Brewer et al. 1991); cited from earlier work
[2] = Solubility and storage stability of TM salts; assay type: physicochemical
Source text: In some embodiments, the salt of TM is an ammonium salt. […] Thus, the bulk drug should be stored in the absence of oxygen, or the oxygen will gradually exchange with the sulfur, rendering the drug ineffective over time. The bulk drug is therefore stored under argon.
Thus, other salts have been prepared and evaluated for solubility, stability and anticopper activity. […] In other embodiments, the salt choline TM has suitable desirable properties. In yet other embodiments, the salt tetraethyl TM has suitable properties. These exemplary salts of TM have suitable solubility in water, and behave similarly to ammonium salt of TM in in vitro copper complexing studies.

DXR toxicity = assay: TM therapy copper supplementation doxorubicin study; assay type: in vivo, mice
Experimental: (§1) Mice and mouse food. All mice were 7-8 weeks old at the start of the various studies, were C57BL/6 purchased from Jackson Laboratory, Bar Harbor, Me., and were housed at 21±2° C. on a 12 hr light/dark cycle in polycarbonate cages containing corn cob bedding. Experimental animals were housed in the University of Michigan Unit for Laboratory Animal Medicine facility and treated in accord with a protocol approved by the University of Michigan Institutional Animal Care and Use Committee. They were fed a mouse diet from Harlan/Teklad, Madison, Wis., to which copper and zinc had not been added by the manufacturer. Each lot was assayed by atomic absorption and found to contain about 0.6 mg of copper and about 6.0 mg of zinc/kg of food. Copper and zinc are then added to the diet such that the final contents were 2 mg copper and 10 mg zinc/kg of food.
TM therapy copper supplementation doxorubicin study. In order to verify that the effect of TM in the DXR study was due to lowering copper, a study of DXR toxicity was done in which a TM treated group was supplemented with excess copper. In this study, 20 mice were divided into four equal groups, 5 to receive 0.015 mg/ml of TM in the drinking water to lower Cp and then receive DXR (TM was given by gavage after DRX), 5 to receive TM in the same dose and manner as the first group but the diet was supplemented with either 30 or 100 ppm copper such that the Cp didn't fall as far as with TM alone, and then they received DXR, 5 to receive DXR only, and 5 served as controls. After Cp was decreased in the first group, DXR in an intraperitoneal dose of 20 mg/kg body weight was given to the first three groups of mice. Four days after DXR the mice were sacrificed and serum Cp, troponin I, and LDH determined.
(§2) Assay Methods. Cp was measured by the oxidase enzyme using known methods. Troponin I, LDH, and CK MB were measured by kit methods using known methods.
(§3) Statistical Analysis. For the comparison of means analysis of variance (ANOVA) was used. All data in the figures are given as means+the standard error.

[3] = tested on: DXR induced cardiotoxicity and myocardial fibrosis; assay: Trientine mouse doxorubicin study; assay type: in vivo, mice
Experimental: as §1, with “Each lot was assayed by atomic absorption and found to contain about 0.6 mg of copper and about 6.0 mg of zinc/kg of food.” left out
Trientine mouse doxorubicin study. The copper chelator trientine was studied and compared to TM to determine the effects, if any, of trientine on DXR induced cardiotoxicity and myocardial fibrosis in mice using doses of trientine by oral gavage to lower the Cp to target range.
as §2, §3

[4] = tested on: doxorubicin model of heart damage; assay: Zinc vs. TM therapy mouse doxorubicin study; assay type: in vivo, C57BL/6 mice; details: for day 4 troponin I plasma level: FIG. 2; for day 4 CK MB plasma level: FIG. 3; for plasma Cp at day 0 (day of DXR administration): after pretreatment to lower Cp
Experimental: as §1
Zinc vs. TM therapy mouse doxorubicin study. The zinc depot method involved injecting subcutaneously a 20 mg zinc/mL of corn oil suspension to achieve a dose of 110 mg of zinc/kg of mouse weight, weekly. With this method, Cp levels were lowered to target range in 4 weeks. Cp levels were lowered with TM in a second group of mice by using 0.015 mg/ml of TM in the drinking water, and changing the drinking water every day.
20 male mice were divided into four equal groups, 5 to receive depot zinc and then DXR, 5 to receive TM in the drinking water and then DXR, 5 to receive DXR only, and 5 to serve as controls. After Cp levels had been lowered in the first two groups, the first three groups of mice received DXR intraperitoneally at a single dose of 20 mg/kg body weight. Since DXR toxicity inhibits mice from drinking water, after DXR administration, TM mice were treated with a daily gavage of 0.2 mg of TM in 0.1 ml of water. Four days after DXR, all mice were sacrificed, and Cp, troponin I, creatine kinase (CK) MB, and lactic dehydrogenase (LDH) levels were all measured in the plasma according to previously described methods.
as §2, §3

[5] = tested on: myocardial toxicity resulting from administration of doxorubicin HCl; details: administered contemporaneously with doxorubicin HCl; cited from earlier work
doxorubicin toxicity = details: mice, previously found; cited from earlier work
[6] = 4 days after DXR, vs DXR controls

[Mo] [Mo, molybdenum]
toxicity of high doses (Wilson's disease; human, in vivo): without toxicity

[NH4+].[NH4+].[SH-].[SH-].[S]=[Mo]=[S] [TM as the ammonium salt]
stability of bulk drug under argon [1]: stable for several years under argon
solubility in water [2]: moderately water soluble
stability in air ([2]; bulk drug): mild air instability
stability in capsules ([2]; room temperature): stable in capsules for several months at room temperature

[SH-].[SH-].[S]=[Mo]=[S] [TM, tetrathiomolybdate]
Cp value on day zero (day of DXR administration) (DXR toxicity; group average, DXR only group about 25 U/L): about 12 U/L
plasma LDH at day 4 after DXR (DXR toxicity; vs DXR only animals, FIG. 6): statistically significantly lower than in the DXR only animals
mean troponin I level at day 4 after DXR (DXR toxicity; vs DXR only animals, FIG. 7): less than half of the DXR only animals
protection of the heart against doxorubicin toxicity, comparison with trientine ([3]; same animal model): much more effective than trientine
toxicity in humans (Wilson's disease; Wilson's disease work): extremely low level of toxicity
effect on neurological worsening during initial treatment (Wilson's disease; Wilson's disease): prevents the neurological worsening
plasma Cp at day 4 (day of sacrifice), increase after DXR ([4]; 4 days after DXR 20 mg/kg i.p., FIG. 1): almost completely prevented
day 4 troponin I plasma level [4, 6]: statistically significant effect on maintaining a lower troponin I
day 4 CK MB plasma level [4, 6]: statistically significantly lower value than DXR controls
day 4 LDH plasma level ([4]; 4 days after DXR, vs DXR controls, FIG. 4): statistically significant effect on maintaining lower values than DXR controls
plasma Cp at day 0 (day of DXR administration) ([4]; FIG. 1): equal suppression of Cp
protection against cardiac damage, comparison with zinc ([4]; similar levels of copper lowering at the time of doxorubicin exposure): much more effective than zinc

CCC[N+](CCC)(CCC)CCC.CCC[N+](CCC)(CCC)CCC.[S]=[Mo](=[S])([S-])[S-] [TPTM, tetrapropyl tetrathiomolybdate]
solubility, stability and anticopper activity, overall [2]: has met all desired properties

C[C@@H](CN1CC(=O)NC(=O)C1)N1CC(=O)NC(=O)C1 [dexrazoxane, (S)-(+)-bis-4,4′-(1-methyl-1,2-ethanediyl)2,6-piperazinedione]
effect on myocardial toxicity of doxorubicin HCl [5]: can reduce or prevent the myocardial toxicity

CC(C)(S)[C@@H](N)C(=O)O [penicillamine, reference compound]
neurological worsening during initial treatment (Wilson's disease; Wilson's disease, share of the time): 50%

NCCNCCNCCN [trientine]
effect on LDH ([3]; FIG. 5B): no protective effect
effect on CK-MB ([3]; FIG. 5C): no protective effect
effect on Troponin 1 ([3]; FIG. 5D): statistically insignificant effect
Cp at day 4 (4 days after DXR) ([3]; continued trientine therapy by oral gavage, FIG. 5A): increased into the normal range
Cp at day 0 (when DXR is given) ([3]; pretreated by oral gavage, FIG. 5A): down significantly, into the target range

[Zn] [zinc, reference compound]
effect on doxorubicin toxicity (doxorubicin toxicity): attenuates doxorubicin toxicity
day 4 troponin I plasma level [4, 6]: somewhat lower mean value than controls, but it didn't reach statistical significance
day 4 CK MB plasma level [4, 6]: no effect
plasma Cp at day 0 (day of DXR administration) ([4]; FIG. 1): equal suppression of Cp
time until Cp levels lowered to target range ([4]; zinc depot s.c. 110 mg zinc/kg weekly): 4 weeks
